From paper PMC11239830, “Synthetic macrolides overcoming MLSBK-resistant pathogens” (Cell Discovery, 2024)
≈ marks a conversion by molar mass, not a printed value. Read-outs that look alike come from different tables or passages of the source.

Tests used:
Experiment in all cases: MIC, broth microdilution
S. aureus = assay type: cell-based, Staphylococcus aureus
Protocol: (§1) MICs were determined by the microdilution method according to the Clinical and Laboratory Standards Institute guidelines. […] Finally, the 96-well plates were incubated at 37 °C for 16–20 h to observe and record the results. […] The assay for MICs was replicated at least three times.

S. pyogenes = assay type: cell-based, Streptococcus pyogenes; details: S. pyogenes 12-206, c-ermTR
Protocol: as §1

H. influenzae = assay type: cell-based, Haemophilus influenzae
Protocol: as §1

S. pneumoniae = assay type: cell-based, Streptococcus pneumoniae
Protocol: as §1

[1] = Staphylococcus aureus, S. aureus 15B196, c-ermB, read-out: MIC
[2] = Staphylococcus aureus, S. aureus PU32, i-ermA, read-out: MIC
[3] = Streptococcus pyogenes, read-out: MIC
[4] = Haemophilus influenzae, ATCC49247, H. influenzae ATCC49247, Azi-S, read-out: MIC
[5] = Streptococcus pneumoniae, ATCC49619, S. pneumoniae ATCC49619, Ery-S, read-out: MIC
[6] = Streptococcus pneumoniae, S. pneumoniae 07P390, c-ermB, read-out: MIC
[7] = Streptococcus pneumoniae, S. pneumoniae PU09, mef, read-out: MIC

Row | SMILES | MIC (S. aureus; [1]) [µg/mL] | MIC (S. aureus; [2]) [µg/mL] | MIC (S. pyogenes; [3]) [µg/mL] | MIC (H. influenzae; [4]) [µg/mL] | MIC (S. pneumoniae; [5]) [µg/mL] | MIC (S. pneumoniae; [6]) [µg/mL] | MIC (S. pneumoniae; [7]) [µg/mL] | MIC (S. aureus; S. aureus 15B196, c-ermB) [µg/mL] | MIC (S. aureus; S. aureus PU32, i-ermA) [µg/mL] | MIC (S. pyogenes) [µg/mL] | MIC (H. influenzae; H. influenzae ATCC49247, Azi-S) [µg/mL] | MIC (S. pneumoniae; S. pneumoniae 07P390, c-ermB) [µg/mL] | MIC (S. pneumoniae; S. pneumoniae ATCC49619, Ery-S) [µg/mL] | MIC (S. pneumoniae; S. pneumoniae PU09, mef) [µg/mL]
1 | CC[C@H]1OC(=O)[C@H](C)[C@@H](OC(=O)NCCCCCc2ccc3c(c2)c(=O)c(C(N)=O)cn3C2CC2)[C@H](C)[C@@H](O[C@@H]2O[C@H](C)C[C@H](N(C)C)[C@H]2O)[C@](C)(OC)C[C@@H](C)C(=NOC)[C@H](C)[C@H]2OC(=O)O[C@@]21C [59b] | – | – | – | – | – | – | – | > 256 | 128 (≈ 130 µM) | 64 (≈ 65 µM) | > 256 | 64 (≈ 65 µM) | 0.25 (≈ 0.254 µM) | 1 (≈ 1.02 µM)
2 | CC[C@H]1OC(=O)[C@H](C)[C@@H](OC(=O)NCCCCCCc2ccc3c(c2)c(=O)c(C(N)=O)cn3C2CC2)[C@H](C)[C@@H](O[C@@H]2O[C@H](C)C[C@H](N(C)C)[C@H]2O)[C@](C)(OC)C[C@@H](C)C(=NOC)[C@H](C)[C@H]2OC(=O)O[C@@]21C [60b] | – | – | – | – | – | – | – | > 256 | 128 (≈ 128 µM) | 32 (≈ 32.1 µM) | > 256 | 32 (≈ 32.1 µM) | 0.25 (≈ 0.25 µM) | 1 (≈ 1 µM)
3 | CCC1OC(=O)C(C)C(OC(=O)NCCCCCCCc2ccc3c(c2)c(=O)c(C(=O)O)cn3C2CC2)C(C)C(OC2OC(C)CC(N(C)C)C2O)C(C)(OC)CC(C)C(=NOC)C(C)C2OC(=O)OC12C (stereo not shown) [61a] | 256 (≈ 253 µM) | 8 (≈ 7.9 µM) | 32 (≈ 31.6 µM) | > 256 | 0.12 (≈ 0.118 µM) | 64 (≈ 63.2 µM) | 0.5 (≈ 0.493 µM) | – | – | – | – | – | – | –
4 | CC[C@H]1OC(=O)[C@H](C)[C@@H](OC(=O)NCCCCCCCc2ccc3c(c2)c(=O)c(C(N)=O)cn3C2CC2)[C@H](C)[C@@H](O[C@@H]2O[C@H](C)C[C@H](N(C)C)[C@H]2O)[C@](C)(OC)C[C@@H](C)C(=NOC)[C@H](C)[C@H]2OC(=O)O[C@@]21C [61b] | – | – | – | – | – | – | – | > 256 | 64 (≈ 63.2 µM) | 16 (≈ 15.8 µM) | > 256 | 16 (≈ 15.8 µM) | 1 (≈ 0.988 µM) | 1 (≈ 0.988 µM)
5 | CCC1OC(=O)C(C)C(OC(=O)NCCCCCCCc2ccc3c(=O)c(C(=O)O)cn(C4CC4)c3c2)C(C)C(OC2OC(C)CC(N(C)C)C2O)C(C)(OC)CC(C)C(=NOC)C(C)C2OC(=O)OC12C (stereo not shown) [61c] | 64 (≈ 63.2 µM) | 8 (≈ 7.9 µM) | 2 (≈ 1.97 µM) | > 256 | ≤ 0.008 | 0.5 (≈ 0.493 µM) | ≤ 0.008 | – | – | – | – | – | – | –
6 | CCC1OC(=O)C(C)C(OC(=O)NCCCCCCCc2ccc3c(=O)c(C(N)=O)cn(C4CC4)c3c2)C(C)C(OC2OC(C)CC(N(C)C)C2O)C(C)(OC)CC(C)C(=NOC)C(C)C2OC(=O)OC12C (stereo not shown) [61d] | > 256 | 64 (≈ 63.2 µM) | 16 (≈ 15.8 µM) | > 256 | 0.12 (≈ 0.119 µM) | 16 (≈ 15.8 µM) | 1 (≈ 0.988 µM) | – | – | – | – | – | – | –

Next, values leading:

Row | MIC (S. aureus; [1]) [µg/mL] | MIC (S. aureus; [2]) [µg/mL] | MIC (S. pyogenes; [3]) [µg/mL] | MIC (H. influenzae; [4]) [µg/mL] | MIC (S. pneumoniae; [5]) [µg/mL] | MIC (S. pneumoniae; [6]) [µg/mL] | MIC (S. pneumoniae; [7]) [µg/mL] | MIC (S. aureus; S. aureus 15B196, c-ermB) [µg/mL] | MIC (S. aureus; S. aureus PU32, i-ermA) [µg/mL] | MIC (S. pyogenes) [µg/mL] | MIC (H. influenzae; H. influenzae ATCC49247, Azi-S) [µg/mL] | MIC (S. pneumoniae; S. pneumoniae 07P390, c-ermB) [µg/mL] | MIC (S. pneumoniae; S. pneumoniae ATCC49619, Ery-S) [µg/mL] | MIC (S. pneumoniae; S. pneumoniae PU09, mef) [µg/mL] | SMILES
7 | 128 (≈ 127 µM) | 16 (≈ 15.9 µM) | 32 (≈ 31.7 µM) | > 256 | 0.25 (≈ 0.248 µM) | 64 (≈ 63.4 µM) | 1 (≈ 0.991 µM) | – | – | – | – | – | – | – | CCC1OC(=O)C(C)C(OC(=O)NCCCCCC#Cc2ccc3c(c2)c(=O)c(C(=O)O)cn3C2CC2)C(C)C(OC2OC(C)CC(N(C)C)C2O)C(C)(OC)CC(C)C(=NOC)C(C)C2OC(=O)OC12C (stereo not shown) [57a]
8 | 16 (≈ 15.9 µM) | 4 (≈ 3.96 µM) | 1 (≈ 0.991 µM) | 8 (≈ 7.93 µM) | ≤ 0.008 | 0.5 (≈ 0.495 µM) | 0.06 (≈ 0.0595 µM) | – | – | – | – | – | – | – | CCC1OC(=O)C(C)C(OC(=O)NCCCCCC#Cc2ccc3c(=O)c(C(=O)O)cn(C4CC4)c3c2)C(C)C(OC2OC(C)CC(N(C)C)C2O)C(C)(OC)CC(C)C(=NOC)C(C)C2OC(=O)OC12C (stereo not shown) [57c]
9 | – | – | – | – | – | – | – | 128 (≈ 125 µM) | 16 (≈ 15.6 µM) | 128 (≈ 125 µM) | 32 (≈ 31.2 µM) | 2 (≈ 1.95 µM) | 0.016 (≈ 0.0156 µM) | 0.5 (≈ 0.488 µM) | CC[C@H]1OC(=O)[C@H](C)[C@@H](OC(=O)NCCCCCC#Cc2ccc3c(=O)c(C(=O)NO)cn(C4CC4)c3c2)[C@H](C)[C@@H](O[C@@H]2O[C@H](C)C[C@H](N(C)C)[C@H]2O)[C@](C)(OC)C[C@@H](C)C(=NOC)[C@H](C)[C@H]2OC(=O)O[C@@]21C [57e]
10 | – | – | – | – | – | – | – | 64 (≈ 62.5 µM) | 8 (≈ 7.82 µM) | 2 (≈ 1.95 µM) | 32 (≈ 31.3 µM) | 1 (≈ 0.977 µM) | 0.25 (≈ 0.244 µM) | 0.25 (≈ 0.244 µM) | CC[C@H]1OC(=O)[C@H](C)[C@@H](OC(=O)NCCCCCCC#Cc2ccc3c(=O)c(C(=O)O)cn(C4CC4)c3c2)[C@H](C)[C@@H](O[C@@H]2O[C@H](C)C[C@H](N(C)C)[C@H]2O)[C@](C)(OC)C[C@@H](C)C(=NOC)[C@H](C)[C@H]2OC(=O)O[C@@]21C [58c]
